Laboratory results: US11273201B2, “Compositions and methods for inducing thrombopoiesis” (Hadasit Medical Research Services and Development Ltd., priority 2013, dated 2022)

Experiments:
LAMA-84 cells [1] = experiment: PMA-induced megakaryocytic differentiation of LAMA-84 cells (morphology, CD41/CD71 flow cytometry, PI ploidy); format: cell-based, Human
Experimental: LAMA-84 cells were maintained in RPMI1640 containing 10% fetal calf serum, 100 U/ml penicillin, 100 μg/ml streptomycin and 2 mM glutamine. To induce differentiation, the cell culture was supplemented with 0.6-5 ng/ml PMA or 50 μM Hemin and cells were harvested and analyzed 1-5 days following treatment.
(§1) To determine the extent of maturation toward MKs 1×10^6 cultured cells (LAMA-84 or CD34+ cells) were washed and then labeled with anti-CD41-FITC (GpIIb/IIIa, BD Bioscience, USA), or anti CD71-FITC or combination of anti-CD33-FITC, anti-CD41-PE, and CD34-APC (Beckman Coulter, USA) and analyzed using FACScalibur (Becton Dickinson, USA) for the percentage of CD41^+ cells generated.
(§2) To determine the amount of ploidy, differentiated LAMA-84 cells were fixed overnight in 75% ethanol at 4° C., labeled with propidium iodide (PI, 50 μg/ml) and analyzed using FACScalibur. Fourteen day differentiated CD34+ were analyzed quantitatively under a microscope following May Grumwald/Giemsa staining for the number of nuclei per cell. Only cells with MK morphology were analyzed.
LAMA-84 cell differentiation following PMA treatment was studied via morphological staining of the cells with May Grunwald/Giemsa and via flow cytometry analysis of CD41 (MK marker) and CD71 (erythroid marker) expression. Moreover, ploidy, a marker of MK differentiation, was also determined by flow cytometry using propidium iodide (PI). A range of PMA concentrations was tested and differentiation was obtained at 0.6-10 ng/ml PMA.

LAMA-84 derived PLPs = experiment: Aggregation of LAMA-84 derived platelet-like particles (AGGRAM aggregometer); format: cell-based, Human; conditions: PMA treated LAMA-84 culture-derived PLPs
Experimental: Platelets and Platelet like particles generated from platelets-poor plasma e.g. LAMA-84 differentiated cells were tested for their functionality in aggregation assays using an AGGRAM aggregometer (Helena Laboratories, Beaumont, Tex.) according to the manufacturer's instructions using various agonists: adenosine diphosphate (ADP) (11 μM), arachidonic acid (AA) (1.6 μM), Epinephrine (50 μM), Ristocetin (1.6 mM) (Diamed AG, Morat, Switzerland) or collagen (5 μg/ml) (Helena Laboratories, Beaumont, Tex.).

LAMA-84 cells [2] = experiment: Release of CD41+ platelet-like particles from LAMA-84 cultures (flow cytometry); format: cell-based, Human
Experimental: (§3) Platelets release into the differentiated cultures was assessed via flow cytometry analysis of the supernatants. Specifically, the culture medium was collected and centrifuged at 150×g for 20 minutes to remove the nucleated cells. The supernatant was then centrifuged at 500×g for 20 minutes to pellet the platelets. Sediments containing platelets and platelet-like particles were resuspended in culture medium in 500 μl aliquots and labeled using anti-CD41-FITC. Cells were analyzed by FACScalibur for CD41 expression and log amplification of forward scatter (FCS) and side scatter (SSC).

Livin, Survivin, XIAP = experiment: Western blot of IAP family proteins during LAMA-84 differentiation; format: cell-based, Human
Experimental: Whole cell lysates were prepared from 0.25-1×10^6 cells using 100 μl lysis buffer [20 mM Tris-HCl, 2 mM EDTA, 6 mM β-Mercaptoethanol, 1% Nonidet P-40 (NP-40), 0.1% SDS and protease inhibitors] at 4° C. for 20 min, with vigorous vortex mixing. Antibodies used were: monoclonal antibody against Livin (clone 88C570) (Imgenex, USA) diluted 1:3000 and Survivin 6E4 monoclonal antibody (Cell Signaling Technology, USA), followed by Envision-HRP (DAKO, Denmark) as a secondary antibody; Polyclonal antibody against XIAP (Cell Signaling Technology, USA), followed by anti-rabbit IgG HRP-linked antibody (Cell Signaling Technology, USA) as a secondary antibody. For immunoprecipitation, equal amounts of protein lysates were pre-cleared with Protein A/G-Agarose (Santa Cruz, USA) together with 1 μg of mouse IgG. Livin was immunoprecipitated from the cleared lysates (using clone 88C570) and the immune complexes were precipitated with Protein A/G-Agarose.
The expression of anti-apoptotic proteins of the […] (IAPs) during the differentiation of LAMA-84 cells towards MKs was analyzed by Western blot analysis. […] Note that in contrast to Livin, the level of Survivin decreased when cells were treated with PMA (FIG. 2E).

Human CD34+ cells [3] = experiment: CD41+ platelets released from differentiated CD34+ cultures (flow cytometry); format: cell-based; conditions: day 14, SCF and TPO
Experimental: as §3
The following experiments evaluated whether functional platelets were generated from the human CD34^+ cell cultures that were transduced with Livin, LivinRING or control empty vector and grown for 14 days under MK differentiating conditions with the addition of SCF and TPO. Platelets released into the media were characterized for CD41 expression and functionality by CD62P up regulation via flow cytometry.

[4] = tested on: platelets derived from CD34+ cultures; experiment: Platelet activation by CD62P expression, platelets from CD34+ cultures; format: cell-based, Human; conditions: platelets from over-expressing CD34+ cultures
Experimental: Since the number of platelets generated from CD34+ cultures was low, platelets derived from these cultures were stimulated for 15 minutes at room temperature (RT) with ADP or AA and activation was assessed via flow cytometry analysis of CD62P (Pselectin)-PE (Beckman Coulter) expression (up regulation of CD62P implies activation).

caspase-3 = experiment: Caspase-3 activity in LAMA-84 cell extracts (CaspACE colorimetric); format: cell-based, Human; conditions: day 4, PMA treated LAMA-84 stably over-expressing construct
Experimental: Extracts from 1×10^6 cells were prepared by the freeze-thaw method assayed for caspase-3 activity using CaspACE™ Assay System, Colorimetric (Promega, USA), according to manufacturer's instructions.
To address the mechanism of action of Livin in MKs differentiation, LAMA-84 cells were stably transfected to over-express Livin and the expression and effects of Livin protein during MKs differentiation were tested by means of Western blot analysis, caspase-3 activity, CD41 expression evaluated by flow cytometry and platelets functionality evaluated by aggregation assay (FIGS. 4A-4D). Specifically, control LAMA-84 cells (EV, empty vector) and LAMA-84 cells stably over expressing wild-type Livin or Livin mutant lacking pro-apoptotic activity (LivinRING) were treated with PMA for 5 Days. Cells were harvested at 12, 24, 48 and 96 hours for evaluation.

Human CD34+ cells [5] = experiment: Megakaryocyte differentiation of cord blood CD34+ cells with SCF and TPO (CD41, CD33, nuclei number, Western blot); format: cell-based
Experimental: Human CD34+ cells were cultured in Iscove's medium (IMDM) (1×10^5 cells/well) and induced to differentiate into MKs in the presence of 10 ng/ml stem cell factor (SCF) and 50 ng/ml thrombopoietin (TPO), freshly supplemented every 3 days. Cells were harvested and analyzed on day 14.
293T cells were infected to produce the virus and supernatant from 48 and 72 hours were infected into both LAMA-84 and CD34+ cells during their differentiation induction phase. In order to over-express Livin both LAMA-84 and CD34+ cells were infected following 1 day of differentiation with pWZL IRES-blasticidin vector expressing wild-type Livin (Livin β), LivinRING (Livin β RING), or empty vector (EV). For down-regulating expression of endogenous Livin, LAMA-84 were transfected by electroporation with pSUPER-Livin-2 (Livin siRNA) or pSUPER-luc (control siRNA) vectors^35 together with pWZL IRES-blasticidin 1 day following differentiation initiation. For down-regulating expression of endogenous Livin in CD34+ cells, cells were infected 1 day after differention with supernatant containing the pSUPER viruses generated by 293T cells.
as §1, §2
To investigate the effect of Livin on primary MK progenitors, human CD34+ cells isolated from cord blood samples, were transduced with Livin, LivinRING or control empty vector and grown for 14 days under MK differentiating conditions with the addition of stem cell factor (SCF) and thrombopoeitin (TPO)^41. At the terminal stages of primary MKs maturation CD34+ cell cultures were examined morphologically, analyzed for CD41 expression and polyploidy via flow cytomery, and Livin expression and cleavage via Western Blot.

## CCCCCCCCCCCCCC(=O)O[C@@H]1[C@@H](C)[C@@]2(O)[C@@H](C=C(CO)C[C@]3(O)C(=O)C(C)=C[C@@H]23)[C@@H]2C(C)(C)[C@]12OC(C)=O [PMA, Phorbol myristate acetate]
LAMA-84 cells [1]; 4 days of exposure to 5 ng/ml PMA
  Ploidy (PI flow cytometry): underwent polyploidization (8N, 16N and 32N)
LAMA-84 cells [1]; 4 days, 5 ng/ml PMA, untreated 8.8%±5.6%
  CD41 expression (percent CD41 positive cells): 81.9%±10%
LAMA-84 cells [1]; LAMA-84 cells after PMA induction
  Morphology (May Grunwald/Giemsa): marked increase in cell size and extensive multinuclearity
LAMA-84 cells [1]; LAMA-84 cells, range of PMA concentrations tested
  PMA concentration at which differentiation was obtained: 0.6 to 10 ng/mL
LAMA-84 derived PLPs
  Aggregation of PLPs in response to Epinephrine, collagen, ADP: aggregated
LAMA-84 cells [2]; after incubation with PMA, untreated 6.5%±2.2%
  Percentage of CD41+ PLPs released to culture medium: 24.3%±3.6%
Livin, Survivin, XIAP; PMA differentiation, cleaved 30 kDa fragment appears
  Level of full length XIAP: dose dependent significant decrease
Livin, Survivin, XIAP; PMA-induced differentiation, not detected in untreated cells
  Livin protein expression: up-regulated
Livin, Survivin, XIAP; cells treated with PMA
  Survivin level: decreased

## Hemin
LAMA-84 cells [1]; Hemin, erythroid differentiation negative control
  CD41 expression levels: did not increase CD41 expression levels
Livin, Survivin, XIAP; Hemin negative control
  Levels of IAP family proteins tested: did not regulate the levels

B1: wild-type Livin: Livin β (SEQ ID NO: 5 cDNA) over-expressed from pWZL IRES-blasticidin retroviral vector (protein, listed as Homo sapiens)
chain: MGPKDSAKCLHRGPQPSHWAAGDGPTQERCGPRSLGSPVLGLDTCRAWDHVDGQILGQLRPLTEEEEEEGAGATLSRGPAFPGMGSEELRLASFYDWPLTAEVPPELLAAAGFFHTGHQDKVRCFFCYGGLQSWKRGDDPWTEHAKWFPSCQFLLRSKGRDFVHSVQETHSQLLGSWDPWEEPEDAAPVAPSVPASGYPELPTPRREVQSESAQEPGARDVEAQLRRLQEERTCKVCLDRAVSIVFVPCGHLVCAECAPGLQLCPICRAPVRSRVRTFLS
Human CD34+ cells [3]
  Platelets produced (CD41+) compared to empty vector control: 4.3±1 fold
[4]
  Platelet activity in response to arachidonic acid (CD62P up regulation): demonstrated activity
caspase-3
  Caspase-3 enzyme activity: induced caspase-3 activation
LAMA-84 cells [2]; day 4, PMA treated LAMA-84 over-expressing construct
  Number of CD41+ PLPs versus control (empty vector) cells: produced more PLPs
Livin, Survivin, XIAP; LAMA-84 over-expressing wild-type Livin, PMA, 96 h
  Cleavage of Livin (Western blot): underwent cleavage only at the terminal stage of differentiation
Human CD34+ cells [5]; day 14, SCF and TPO, p=0.029
  Increase in percentage of CD41 stained cells compared to empty vector: 3.7±1 fold
Human CD34+ cells [5]; day 14, n=9, control cells 7.4±6.9%
  CD33 expression of differentiated CD41+ cells: 22.6±39.8%
Human CD34+ cells [5]; day 14, versus LivinRING or empty vector (p=0.01 and 0.02)
  Multi-nucleated MKs (≥4 nuclei): significant increase
Human CD34+ cells [5]; day 14, versus naive and empty vector CD34+ cultures
  Livin and tLivin protein levels (Western blot): robust levels
